Measurements as given in patent US11407756B2, “Heterocyclic compounds and noxious arthropod control agent containing same” (SUMITOMO CHEMICAL COMPANY, LIMITED, priority 2017, dated 2022).

Test system: German cockroaches (Blattella germanica)
Experiment: Test method 8: treated filter paper with sucrose, male adult German cockroaches
Assay type: in vivo
Conditions: 500 ppm, 0.7 mL on filter paper, after 6 days, 25° C.
Description: Next, Test Examples are used to show effects of the Present compounds X on harmful arthropods. In the following Test Examples, the tests were carried out at 25° C.
Each test compound is formulated according to the process described in the Formulation Example 5 to obtain each formulation, and water is added thereto to prepare a diluted solution containing a prescribed concentration of each test compound.
A filter paper having a diameter of 5.5 cm is lined with the inside bottom of a cup having a diameter of 5.5 cm, each of said diluted solutions (0.7 mL) is added dropwise on the filter paper, and sucrose (30 mg) is homogeneously placed into said cup as a feed. Two (2) male adult German cockroaches (Blattella germanica) are released into said cup, and the cup is covered. After 6 days, life and death of the German cockroach are examined, the number of the dead insects is counted, and the mortality of insects is calculated by the following equation. Mortality(%)=(Number of dead insects/Number of test insects)×100

CCS(=O)(=O)c1cc(OC(C)C)cnc1-n1ccc2nc(C(F)(F)F)cn2c1=O [compound 12] showed a mortality of 100%.
